The results in this text go back to ChEMBL document CHEMBL4818987, “Recent advances of podophyllotoxin/epipodophyllotoxin hybrids in anticancer activity, mode of action, and structure-activity relationship: An update (2010-2020)” (Eur J Med Chem, 2020).

The term GI50 denotes the concentration that inhibits growth by half. The IC50 is the concentration at which inhibition is half-maximal.

Molecules are shown by their SMILES.

Assay [1] concerns K562/A02. Put plainly: Potency index, ratio of etoposide GI50 to test compound GI50 for human K562/A02 cells. Type of assay: functional.
Assay [2] deals with K562. Description: Cytotoxicity against human K562 cells by SRB assay. Type of assay: functional, cell-based. Background: The SRB assay estimates cell density from bound dye.
Assay [3] relates to K562/A02. Description: Cytotoxicity against human K562/A02 cells by SRB assay. Type of assay: functional, cell-based.
Assay [4] deals with K562/A02. Description: Potency index, ratio of doxorubicin IC50 to test compound IC50 for human K562/A02 cells. Type of assay: functional.
Assay [5] deals with HeLa. Description: Antiproliferative activity against human HeLa cells by MTT assay. Format: functional, cell-based.
The subject of assay [6] is K562/A02. Description: Antiproliferative activity against human K562/A02 cells by MTT assay. Type of assay: functional, cell-based. On the technique in general: Tetrazolium dyes change colour on reduction, which living cells bring about.
Assay [7] concerns K562. Description: Antiproliferative activity against human K562 cells by MTT assay. Format: functional, cell-based.
Assay [8] deals with HeLa. Put plainly: Potency index, ratio of etoposide IC50 to test compound IC50 for human HeLa cells. Type of assay: functional.
The subject of assay [9] is K562. Description: Potency index, ratio of etoposide IC50 to test compound IC50 for human K562 cells. Type of assay: functional.
The nature of assay [10]: Resistance index, ratio of IC50 for human K562/AO2 cells to IC50 for human K562 cells. Format: functional.
Assay [11] concerns A549. Description: Antiproliferative activity against human A549 cells incubated for 48 hrs by MTT assay. Type of assay: functional, cell-based. The following applies: A549, 48 h.
Assay [12] relates to MCF7. Description: Antiproliferative activity against human MCF7 cells incubated for 48 hrs by MTT assay. Format: functional, cell-based. Conditions: MCF7, 48 h.
Another assay concerns SW480. Put plainly: Antiproliferative activity against human SW480 cells incubated for 48 hrs by MTT assay. Type of assay: functional, cell-based. The following applies: SW480, 48 h.
The subject of a further assay is SMMC-7721. Put plainly: Antiproliferative activity against human SMMC-7721 cells incubated for 48 hrs by MTT assay. Format: functional, cell-based. Conditions: SMMC-7721, 48 h.
A further assay relates to HL-60. Put plainly: Antiproliferative activity against human HL-60 cells incubated for 48 hrs by MTT assay. Type of assay: functional, cell-based. The following applies: HL-60, 48 h.
The test system of a further assay is CCRF S-180. Put plainly: Antitumor activity against mouse S180 cells implanted in ICR mouse assessed as reduction in tumor weight at 20 mg/kg, ip administered everyday for 7 days relative to control. Format: functional. On the set-up: scale not given: the % may be the effect or the level left. Conditions: time 7 day.
The subject of a further assay is HepG2. Put plainly: Cytotoxicity against human HepG2 cells incubated for 24 hrs by CCK8 assay. Type of assay: functional, cell-based. Conditions: HepG2, 24 h.
Assay [13] deals with HeLa. Description: Cytotoxicity against human HeLa cells incubated for 24 hrs by CCK8 assay. Type of assay: functional, cell-based.
The test system of assay [14] is A549. Description: Cytotoxicity against human A549 cells incubated for 24 hrs by CCK8 assay. Type of assay: functional, cell-based. Conditions: A549, 24 h.
The test system of assay [15] is MCF7. Put plainly: Cytotoxicity against human MCF7 cells incubated for 24 hrs by CCK8 assay. Format: functional, cell-based. The following applies: MCF7, 24 h.
The nature of assay [16]: Cytotoxicity against PBMC (unknown origin) incubated for 24 hrs by CCK8 assay.
The subject of the next assay is L02. Description: Cytotoxicity against human L02 cells incubated for 24 hrs by CCK8 assay. Type of assay: functional, cell-based. The following applies: L02, 24 h.

For `COc1ccc2[nH]cc(C(=O)C(=O)N[C@@H]3c4cc5c(cc4[C@@H](c4cc(OC)c(OC)c(OC)c4)[C@H]4C(=O)OC[C@@H]43)OCO5)c2c1`, the “Ratio IC50” value in the assay with K562/A02 [1] and in the assay with K562/A02 [4] was 4.2 in each case. The concentration for 50% growth inhibition (GI50) was 1.02 µM in the assay with K562 [2] and 3.34 µM with K562/A02 [3].

Turning to `COc1cc([C@@H]2c3cc4c(cc3[C@@H](NCc3cc5ccccc5[nH]3)[C@H]3COC(=O)[C@H]23)OCO4)cc(OC)c1OC`, the IC50 in the assay with HeLa [5] is 0.1 µM; in the assay on K562/A02 [6], 2.23 µM; in the assay with K562 [7], 0.1 µM. Further, the “Ratio IC50” value with HeLa [8] worked out at 1.7; in the assay on K562 [9] it was 1.7; in the assay on K562/A02 [1], 1.7; in assay [10] it was 1.97.

As for `COc1cc([C@@H]2c3cc4c(cc3[C@@H](OC(=O)CCCC[C@@H]3SC[C@@H]5NC(=O)N[C@@H]53)[C@H]3COC(=O)[C@H]23)OCO4)cc(OC)c1O`, the half-maximal inhibitory concentration (IC50) in the assay on A549 [11], in the assay with MCF7 [12], in the assay on SW480, in the assay on SMMC-7721 and in the assay with HL-60 was 0.13 µM throughout. Also, the Activity in the assay with CCRF S-180 is listed as 37.7%.

In the case of `COc1cc([C@@H]2c3cc4c(cc3[C@H](OC(=O)c3c[nH]c5ccccc35)[C@H]3COC(=O)[C@H]23)OCO4)cc(OC)c1OC`, the concentration for half-maximal inhibition (IC50) in the assay with HepG2 came to 1.93 µM; in the assay on HeLa [13], 1.93 µM; in the assay with A549 [14] it was 1.93 µM; with MCF7 [15] it was 1.93 µM; in assay [16], 75.6 µM; in the assay on L02, 88.9 µM.
